Literature values as cited in patent US7629342B2, “Azabicyclic heterocycles as cannabinoid receptor modulators” (Bristol-Myers Squibb Company, priority 2005, dated 2009).

What was measured:
[1] = chronic administration for two weeks
[2] = highest dose; relative to 14.8% for placebo
[3] = 16 week trial period, Phase IIb

Row | Compound | body weight [1] | patients stayed abstinent from cigarette smoke [2] [%] | body weight in human subjects [3]
1 | Cc1c(C(=O)NN2CCCCC2)nn(-c2ccc(Cl)cc2Cl)c1-c1ccc(I)cc1 [AM-251] | substantial body weight reduction |  | 
2 | Cc1c(C(=O)NN2CCCCC2)nn(-c2ccc(Cl)cc2Cl)c1-c1ccc(Cl)cc1 [SR-141716] |  | 30.2 | dose-dependently reduced body weight
